Assay results reported in patent publication US12419869B2, “Methods of treating multiple sclerosis” (Vanda Pharmaceuticals Inc., priority 2021, dated 2025).

Legend:
S1P receptor 1 = S1P receptor 1 (Homo sapiens, UniProt P21453); assay: S1P receptor binding / activity
Source text: Ponesimod is extensively metabolized prior to excretion in humans, though unchanged ponesimod was the main circulating component in plasma. […] M13 and M12 are respectively about 20% and 6% of total drug-related exposure.

[1] = test system: CYP or UGT enzymes, or transporters; assay: In vitro investigations of drug-drug interaction potential; format: in vitro ADME; settings: at recommended dose of 20 mg once-daily
heart rate = assay: Heart rate pharmacodynamics, dose dependence; set-up: species or system human; settings: in vivo
Method: PONVORY causes a transient dose-dependent reduction in heart rate (HR) and AV conduction delays upon treatment initiation [see Warnings and Precautions (5.2)]. The heart rate decreases plateaued at doses greater than or equal to 40 mg [2 times the recommended maintenance dosage], and bradyarrhythmic events (AV blocks) were detected at a higher incidence under PONVORY treatment, compared to placebo. This effect starts within the first hour of dosing and is maximal at 2-4 hours post-dose. HR generally returns to pre-dose values by 4-5 hours post-dose on Day 1, and the effect diminishes with repeated administration. indicating tolerance.

Ames assay = format: cell-based; settings: in vitro
Source text: (§1) Ponesimod was negative in a battery of in vitro (Ames, chromosomal aberration in mammalian cells) and in vivo (micronucleus in rat) assays.

rat = assay: Micronucleus in rat; settings: in vivo
Source text: as §1

[2] = Oral toxicity studies of 13 to 52 weeks in dogs, coronary arterial lesions; format: in vivo, dog; settings: dog, in vivo; 13 to 52 weeks oral
Method: (§2) At the NOAEL (2 mg/kg/day) for these findings, plasma exposures (AUC) were approximately 2 times that expected in humans at the RHD.

dogs = assay: as above; format: in vivo, dog; settings: dogs
Method: as §2

mammalian cells = assay: Chromosomal aberration in mammalian cells; format: cell-based; settings: in vitro
Source text: as §1

pregnant rabbits = assay: Dose-range finding study in pregnant rabbits, oral; format: in vivo, rabbit; settings: 0, 6, 20, or 60 mg/kg/day; at lowest dose tested
Source text: No maternal toxicity was observed.

[3] = test system: Patients (18-55 years) with RMS; assay: No evidence of disease activity (NEDA-3) status, baseline to week 108; format: in vivo, human
Method: Patients (18-55 years) with RMS (expanded disability status scale scores: 0-5.5) were randomized (1:1) to receive ponesimod (PON) 20 mg or teriflunomide (TER) 14 mg for 108 weeks. MRI assessments were: volume of T2 lesions; mean number of new gadolinium-enhancing (Gd+) T1 lesions and new/enlarging T2 lesions; and absence of active MRI lesions at week 108. NEDA-3 status (absence of confirmed relapse, Gd+T1 lesions and new/enlarging T2 lesions on annual MRIs, and 12-week confirmed disability accumulation) was evaluated from baseline to week 108.

[4] = Animal studies of blood-brain-barrier passage; format: in vivo
Source text: (§3) Ponesimod is highly bound to plasma proteins (>99%) and is mainly (78.5%) distributed in the plasma fraction of whole blood.

rats = assay: Carcinogenesis, rats, oral up to 2 years; format: in vivo, rat
Method: Plasma exposure at the highest dose tested in males (30 mg/kg/day) was approximately 4 times that in humans at the recommended human dose (RHD) of 20 mg.

pregnant rats = assay: Embryofetal development study in pregnant rats, oral; format: in vivo
Source text: Maternal toxicity was not observed, indicating a selective effect on the fetus.

in vitro = in vitro ADME; settings: human, plasma
Source text: as §3

plasma proteins = assay: in vitro; format: in vitro ADME
Source text: as §3

Chain of S1P receptor 1 (P21453 whole entry): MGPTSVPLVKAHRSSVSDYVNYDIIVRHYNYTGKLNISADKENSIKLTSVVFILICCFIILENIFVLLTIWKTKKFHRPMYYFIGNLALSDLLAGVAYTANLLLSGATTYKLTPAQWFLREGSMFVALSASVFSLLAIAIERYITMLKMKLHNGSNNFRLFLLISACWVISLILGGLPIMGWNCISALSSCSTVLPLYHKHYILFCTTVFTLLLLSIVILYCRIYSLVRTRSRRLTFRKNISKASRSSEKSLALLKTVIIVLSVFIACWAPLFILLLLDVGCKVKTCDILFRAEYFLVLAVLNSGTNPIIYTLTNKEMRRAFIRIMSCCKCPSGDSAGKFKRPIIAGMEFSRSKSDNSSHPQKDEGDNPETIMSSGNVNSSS

Q: What does the source list for `CCC/N=C1\S/C(=C\c2ccc(OC[C@H](O)CO)c(Cl)c2)C(=O)N1c1ccccc1C` [Ponesimod, (R)-5-[3-chloro-4-(2,3-dihydroxy-propoxy)-benz[Z]ylidene]-2-([Z]-propylimino)-3-o-tolyl-thiazolidin-4-one]?
A: Binding to S1P receptor 1 (S1P receptor 1): binds with high affinity; Drug-drug interaction potential for CYP or UGT enzymes, or transporters [1]: do not show any clinically relevant drug-drug interaction potential; Dose at which heart rate decreases plateaued (heart rate): greater than or equal to 40 mg; Ames assay result (Ames assay): negative; Micronucleus in rat result (rat): negative; NOAEL [2]: 2 mg/kg/day; Plasma exposures (AUC) at NOAEL relative to humans at RHD (dogs): approximately 2 times; Chromosomal aberration in mammalian cells result (mammalian cells): negative; Findings in dose-range finding study in pregnant rabbits (pregnant rabbits): an increase in embryofetal death and fetal limb malformation; Odds ratio PON vs TER for NEDA-3 [3]: 1.70; Patients achieving NEDA-3 [3]: 28.2%; Blood-brain-barrier passage [4]: readily crosses the blood-brain-barrier; Plasma exposure at highest dose in male rats (30 mg/kg/day) relative to humans at RHD (rats; rat, in vivo): approximately 4 times; Carcinogenicity findings in rats (rats; up to 30 (males) / 100 (females) mg/kg/day): did not result in an increase in tumors; Embryofetal findings in rats (pregnant rats; 0, 1, 10, or 40 mg/kg/day oral during organogenesis, at all but the lowest dose): increased incidences of fetal malformations; No-effect dose for adverse effects on embryofetal development in rats (pregnant rats; rat, in vivo): 1 mg/kg/day; Plasma exposure (AUC) at no-effect dose vs humans at RHD 20 mg/day (pregnant rats; rats): lower than that in humans; fraction unbound (in vitro): < 0.01; Distribution in the plasma fraction of whole blood (plasma proteins): 78.5%; Plasma protein binding (plasma proteins; human, plasma): greater than 99%
